# Laboratory results: ChEMBL document CHEMBL1201862, “PubChem BioAssay data set” (2004)
#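 Five compound concentrations were applied to cells in 96-well plates for 48 hours; endpoints were derived by simple linear interpolation of the resulting dose-response curve. GI50: concentration for 50% inhibition of growth.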 Calls of active or inactive are those of the source. Cut-off read from the data, not from the text of the source: active = GI50 up to about 1.1 µM and inactive = higher.
# Experiments:
# Assay in all cases: NCI tumour cell line growth inhibition, 48 h
# PC-3 = test system: PC-3
# NCI-H226 = test system: NCI-H226
# MDA-MB-435 = test system: MDA-MB-435
# MDA-MB-231 = test system: MDA-MB-231
# SNB-75 = test system: SNB-75
# CAKI-1 = test system: CAKI-1
# EKVX = test system: EKVX
# CCRF-CEM = test system: CCRF-CEM
# NCI/ADR-RES = test system: NCI/ADR-RES
# UO-31 = test system: UO-31
# SR = test system: SR
# Malme-3M = test system: Malme-3M
# Hs-578T = test system: Hs-578T
# HOP-62 = test system: HOP-62
# SK-MEL-28 = test system: SK-MEL-28
# MOLT-4 = test system: MOLT-4
# A498 = test system: A498
# SK-MEL-2 = test system: SK-MEL-2
# RXF 393 = test system: RXF 393
# K562 = test system: K562
Structure (SMILES),GI50 (PC-3),GI50 (NCI-H226),GI50 (MDA-MB-435),GI50 (MDA-MB-231),GI50 (SNB-75),GI50 (CAKI-1),GI50 (EKVX),GI50 (CCRF-CEM),GI50 (NCI/ADR-RES),GI50 (UO-31),GI50 (SR),GI50 (Malme-3M),GI50 (Hs-578T),GI50 (HOP-62),GI50 (SK-MEL-28),GI50 (MOLT-4),GI50 (A498),GI50 (SK-MEL-2),GI50 (RXF 393),GI50 (K562)
CC1(C)OC2C(=O)C=C(COCc3ccccc3)C2O1 (stereo not drawn),23.9 µM (inactive),22.9 µM (inactive),25.2 µM (inactive),27.4 µM (inactive),> 10 µM (inactive),35.3 µM (inactive),37.5 µM (inactive),21 µM (inactive),37.2 µM (inactive),21.9 µM (inactive),35.1 µM (inactive),19 µM (inactive),27 µM (inactive),26.4 µM (inactive),30 µM (inactive),28.4 µM (inactive),56.6 µM (inactive),38.9 µM (inactive),15.5 µM (inactive),23.6 µM (inactive)
Cc1ccc(S(=O)(=O)n2c3c(c4ccccc42)CCN2C(=O)C(S(=O)(=O)c4ccccc4)=CCC32)cc1 (stereo not drawn),0.239 µM (active),1.77 µM (inactive),0.211 µM (active),0.186 µM (active),0.157 µM (active),0.262 µM (active),0.448 µM (active),0.228 µM (active),0.218 µM (active),0.234 µM (active),0.255 µM (active),0.213 µM (active),0.579 µM (active),0.24 µM (active),0.168 µM (active),0.304 µM (active),0.213 µM (active),0.217 µM (active),0.14 µM (active),0.202 µM (active)
COc1ccc(NC(=O)CC(=O)n2nc(-c3ccccc3)c(/N=N/c3ccccc3C)c2-c2ccccc2)cc1,17.1 µM (inactive),26 µM (inactive),> 100 µM (inactive),71 µM (inactive),18.7 µM (inactive),17.3 µM (inactive),16.3 µM (inactive),> 61.9 µM (inactive),29.6 µM (inactive),35.6 µM (inactive),35.9 µM (inactive),24.3 µM (inactive),14.3 µM (inactive),15.9 µM (inactive),> 41.7 µM (inactive),> 64.1 µM (inactive),21.5 µM (inactive),18.2 µM (inactive),17.3 µM (inactive),> 79.8 µM (inactive)
Clc1ccc(CNc2nc(Cl)c3nc[nH]c3n2)cc1Cl,21.6 µM (inactive),21.9 µM (inactive),32 µM (inactive),30.8 µM (inactive),32.1 µM (inactive),23.2 µM (inactive),25.2 µM (inactive),35.5 µM (inactive),15.8 µM (inactive),11.4 µM (inactive),26.5 µM (inactive),26.4 µM (inactive),21 µM (inactive),27.4 µM (inactive),–,33.6 µM (inactive),11.1 µM (inactive),22.3 µM (inactive),30.9 µM (inactive),20.3 µM (inactive)
O=C(/C=C/c1ccccc1)c1cc(CN2CCOCC2)c(O)c(CN2CCOCC2)c1,19.2 µM (inactive),26.6 µM (inactive),14.5 µM (inactive),18.2 µM (inactive),19.3 µM (inactive),2.26 µM (inactive),25.3 µM (inactive),2.71 µM (inactive),25.5 µM (inactive),15.4 µM (inactive),5.51 µM (inactive),–,35.6 µM (inactive),16.8 µM (inactive),14.5 µM (inactive),16.7 µM (inactive),12.9 µM (inactive),23.4 µM (inactive),14.1 µM (inactive),5.47 µM (inactive)
C#CCSc1nc(-c2ccco2)n[nH]1,> 100 µM (inactive),> 100 µM (inactive),> 100 µM (inactive),> 100 µM (inactive),> 100 µM (inactive),> 100 µM (inactive),> 100 µM (inactive),–,> 100 µM (inactive),17.2 µM (inactive),> 100 µM (inactive),> 100 µM (inactive),> 100 µM (inactive),49.3 µM (inactive),> 100 µM (inactive),> 100 µM (inactive),> 100 µM (inactive),> 100 µM (inactive),> 100 µM (inactive),> 100 µM (inactive)
COC(=O)c1c(O)ccc2c1c1c(n2Cc2ccccn2)C(=O)c2ccccc2C1,16.5 µM (inactive),> 100 µM (inactive),86.5 µM (inactive),> 100 µM (inactive),> 100 µM (inactive),19.1 µM (inactive),–,27.9 µM (inactive),44.4 µM (inactive),54.5 µM (inactive),> 100 µM (inactive),> 100 µM (inactive),> 100 µM (inactive),> 100 µM (inactive),> 100 µM (inactive),95.1 µM (inactive),> 100 µM (inactive),75 µM (inactive),31.6 µM (inactive),> 100 µM (inactive)
CC(CN(C)C)C(=O)/C=C/c1ccc(Cl)c(Cl)c1 (stereo not drawn),1.04 µM (active),2.2 µM (inactive),1.63 µM (inactive),1.73 µM (inactive),19.1 µM (inactive),2 µM (inactive),1.7 µM (inactive),0.453 µM (active),3.52 µM (inactive),1.69 µM (inactive),1.02 µM (active),–,3.69 µM (inactive),2.96 µM (inactive),3.37 µM (inactive),2.67 µM (inactive),1.78 µM (inactive),2 µM (inactive),12.6 µM (inactive),3.01 µM (inactive)
CC1C(C#N)(C#N)C(C#N)=C(N)C1(Cl)[N+](=O)[O-] (stereo not drawn),17.7 µM (inactive),17.1 µM (inactive),16.7 µM (inactive),13.2 µM (inactive),11.7 µM (inactive),5.4 µM (inactive),17.8 µM (inactive),2.18 µM (inactive),16 µM (inactive),15.5 µM (inactive),5.01 µM (inactive),5.71 µM (inactive),16.1 µM (inactive),3.08 µM (inactive),–,1.72 µM (inactive),17.4 µM (inactive),25.6 µM (inactive),4.33 µM (inactive),2.88 µM (inactive)
CC(C)CCNC(=O)c1ccc(CNC(=O)/C=C/c2cccc(Oc3ccccc3)c2)cc1,46.2 µM (inactive),47.4 µM (inactive),13.6 µM (inactive),24.1 µM (inactive),34.9 µM (inactive),47.1 µM (inactive),23.1 µM (inactive),–,37.2 µM (inactive),45 µM (inactive),8.77 µM (inactive),> 100 µM (inactive),> 100 µM (inactive),18.7 µM (inactive),> 100 µM (inactive),> 100 µM (inactive),30.8 µM (inactive),31.3 µM (inactive),18.6 µM (inactive),> 100 µM (inactive)
